Test results as given in patent publication US8044038B2 (Fermion Oy, priority 2005, dated 2011).
Counter-ions that a name gives are not always drawn. Like-named read-outs stand apart in the source and are kept apart here.

Experiments:
[1] = laser diffraction; for Size of crystals, 10% < / Size of crystals, 50% < / Size of crystals, 90% < / Size of crystals, Mean: quetiapine conc. 20 w-%, ethanol-water 80 w-% (Example 5), 85 w-% (Example 6)
Method: In examples 5 and 6 the crystal size analysis was performed using laser diffraction analyser (light scattering). Volume cell was 15 ml, optical length 0.6 cm, obscuration about 8 to 12%. Methyl siloxane was used as a dispersant.

Row | Compound | Size of crystals, 10% < [1] | Size of crystals, 50% < [1] | Size of crystals, 90% < [1] | Size of crystals, Mean [1] | 90% of the crystals below ([1]; water content of crystallization solvent between 15 to 20 w-%) | size of crystals (ratio of alcohol to water 77:22) | size of crystals (ratio of alcohol to water 91:9)
1 | OCCOCCN1CCN(C2=Nc3ccccc3Sc3ccccc32)CC1 [Example 6, quetiapine hemifumarate] | 10% < 14 μm | 50% < 44 μm | 90% < 148 μm | Mean: 60 μm |  |  | 
2 | OCCOCCN1CCN(C2=Nc3ccccc3Sc3ccccc32)CC1 [Example 5, quetiapine hemifumarate] | 10% < 25 μm | 50% < 83 μm | 90% < 244 μm | Mean: 108 μm |  |  | 
3 | OCCOCCN1CCN(C2=Nc3ccccc3Sc3ccccc32)CC1 [quetiapine hemifumarate, 11-(4-[2-(2-hydroxyethoxy)ethyl]-1-piperazinyl]dibenzo[b,f]-1,4-thiazepine hemifumarate (2:1) salt] |  |  |  |  | below 244 μm | 50-100 microns | 10-20 microns
